Active and inactive are the calls of the source. No cut-off for these calls is given here.
Legend:
Staphylococcus aureus = assay: Antimicrobial activity against Staphylococcus aureus ATCC 12600 assessed as zone of inhibition at 60 ug incubated overnight by agar well diffusion assay; format: functional; conditions: read-out: DIZ
[1] = tested on: Staphylococcus epidermidis; assay: Antimicrobial activity against Staphylococcus epidermidis ATCC 14990 assessed as zone of inhibition at 60 ug incubated overnight by agar well diffusion assay; format: functional; conditions: read-out: DIZ
Candida albicans = assay: Antibiofilm activity against Candida albicans assessed as reduction in biofilm formation at 100 uM incubated for 48 hrs by XTT biofilm assay; format: functional, organism-based

Row | Structure (SMILES) | zone of inhibition at 60 µg/disc (Staphylococcus aureus) | zone of inhibition at 60 µg/disc [1] | Activity (Candida albicans)
1 | CC(=O)OCCCCCCCc1cc(=O)c2ccccc2[nH]1 | 8 mm | 7 mm | 
2 | CC(=O)OCCCCCCCCc1cc(=O)c2ccccc2[nH]1 | 9 mm | 9 mm | 
3 | CC(=O)OCCCCCCCCCc1cc(=O)c2ccccc2[nH]1 | 11 mm | 11 mm | 
4 | CCCCCc1cc(O)c2ccccc2n1 | 13 mm | 14 mm | Active
5 | CCCCCCCCCCc1cc(=O)c2ccccc2[nH]1 | 10 mm | 12 mm | Active
6 | CCCCCCCCCc1cc(=O)c2ccccc2[nH]1 | 12 mm | 12 mm | Active
7 | O=c1cc(CCCCCCCCCO)[nH]c2ccccc12 | 0 mm | 0 mm | inactive
8 | CCCCCCCCc1cc(=O)c2ccccc2[nH]1 | 11 mm | 12 mm | Active
9 | CC1(C)S[C@@H]2[C@H](NC(=O)Cc3ccccc3)C(=O)N2[C@H]1C(=O)O [PENICILLIN G] | 41 mm | 38 mm | 
10 | CC(=O)OCCCCCCCCCCc1cc(=O)c2ccccc2[nH]1 | 10 mm | 10 mm | 
11 | O=c1cc(CCCCCCCCO)[nH]c2ccccc12 | 0 mm | 0 mm | 
12 | O=c1cc(CCCCCCCCCCO)[nH]c2ccccc12 | 0 mm | 0 mm | inactive
13 | O=c1cc(CCCCCCCO)[nH]c2ccccc12 | 0 mm | 0 mm | inactive
14 | CCCCCCCc1cc(=O)c2ccccc2[nH]1 | 13 mm | 13 mm | Active

Reference: ChEMBL document CHEMBL5370668, “Expected and Unexpected Products from the Biochemical Oxidation of Bacterial Alkylquinolones with CYP4F11” (2023)
